Measured values published in patent publication US10799552B2, “Methods for treating diabetic neurotherapy” (Massachusetts Eye and Ear Infirmary, priority 2011, dated 2020).
Peptide text beside a SMILES is read from it. * marks the point of attachment. Cbz = O=C(OCc1ccccc1)*; CH2F = FC*

System: optic nerve axons of retinal ganglion cells
Experiment: Axon regeneration after optic nerve crush injury (βIII-tubulin staining of optic nerve sections)
Assay type: in vivo, mouse
Conditions: intravitreal, ZVAD 300 μM and/or Nec-1 4 mM; 14 days after optic nerve injury; FIGS. 3B-3E
Experimental: Intravitreal injections were performed as follows. Briefly, the tip of a 33 gauge needle (Hamilton, Reno, Nev.) was carefully inserted through the sclera into the intravitreal space to reduce intraocular pressure. Then, the needle was extracted, loaded with compounds and tangentially reinserted through the sclera into the intravitreal space, inducing a self-sealing wound tunnel. After injection, the absence of choroidal bleeding was confirmed. At specified times after injury, mice were sacrificed with an overdose of sodium pentobarbital, and eyes were enucleated.
To investigate the efficacy of necrosis inhibitor and pan-caspase inhibitor in promoting axon regeneration, eight-weeks-old mice were subjected to optic nerve crush surgery as previously described. […]
Axon regeneration was assessed by obtaining longitudinal sections of the optic nerve and counting the number of axons at pre-specified distances from the injury site. […] Axons were counted manually in at least eight longitudinal sections per case at pre-specified distances from the injury site. The number of regenerating axons at various di stances are determined as described previously (Leon et al., (2000) J NEUROSCI 20: 4615-4626). […]

## COC(=O)CC(NC(=O)C(C)NC(=O)C(NC(=O)OCc1ccccc1)C(C)C)C(=O)CF (stereo not drawn) [ZVAD, Benzyloxycarbonyl-Val-Ala-Asp(OMe)-fluoromethylketone] (Cbz-Val-Ala-Asp(OMe)-CH2F; configuration not given here)
  axon regeneration (axon staining beyond injury site): minimal effects on axon regeneration

## CN1C(=O)NC(Cc2c[nH]c3c(Cl)cccc23)C1=O (centres unmarked) [Nec-1]
  axon regeneration (axon staining beyond injury site): minimal effects on axon regeneration
